Legend:
Type in all cases: in vitro ADME
UGT1A6 = target: T1, UGT1A6 (Homo sapiens, UniProt P19224); test: Inhibition of recombinant UGT1A6-catalyzed 4-MU glucuronidation; conditions: recombinant UGT1A6, pH 7.4, probe 4-MU (110 μM), 100 μM kurarinone, recombinant UGT
T1 construct: purchased BD Gentest Corp. (Woburn, MA, USA)
T1 sequence (P19224 27-532): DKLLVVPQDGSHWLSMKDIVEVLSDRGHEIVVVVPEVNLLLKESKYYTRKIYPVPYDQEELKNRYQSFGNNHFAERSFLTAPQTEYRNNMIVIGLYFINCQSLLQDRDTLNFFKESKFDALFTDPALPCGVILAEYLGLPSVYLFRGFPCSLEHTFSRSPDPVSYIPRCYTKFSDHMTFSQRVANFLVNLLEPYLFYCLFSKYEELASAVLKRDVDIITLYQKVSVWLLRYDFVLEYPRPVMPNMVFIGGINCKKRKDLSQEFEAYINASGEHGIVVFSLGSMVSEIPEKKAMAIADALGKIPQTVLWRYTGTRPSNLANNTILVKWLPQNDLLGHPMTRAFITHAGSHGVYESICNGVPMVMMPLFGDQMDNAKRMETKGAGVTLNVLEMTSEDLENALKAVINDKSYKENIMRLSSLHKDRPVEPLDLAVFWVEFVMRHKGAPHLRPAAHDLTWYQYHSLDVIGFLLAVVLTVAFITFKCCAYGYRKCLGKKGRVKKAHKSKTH
Experimental: (§1) 4-MU, a nonspecific probe substrate for UGT isoforms, was used to explore the inhibition of UGT isoforms by kurarinone. The mixture (200 μL total volume) contained recombinant UGTs (final concentrations: 0.125, 0.05, 0.025, 0.05, 0.025, 0.05, 0.05, 0.25, 0.05, and 0.2 mg/mL for UGT1A1, UGT1A3, UGT1A6, UGT1A7, UGT1A8, UGT1A9, UGT1A10, UGT2B4, UGT2B7, and UGT2B15, respectively), 5 mM UDPGA, 5 mM MgCl2, 50 mM Tris-HCl buffer (pH 7.4), and 4-MU in the absence or presence of various concentrations of kurarinone. The concentrations of 4-MU were as follows: 110 μM for UGT1A1 and UGT1A6, 1200 μM for UGT1A3 and UGT2B4, 15 μM for UGT1A7, 750 μM for UGT1A8, 30 μM for UGT1A9, 80 μM for UGT1A10, 350 μM for UGT2B7, 250 μM for UGT2B15, and 2000 μM for UGT2B17. Kurarinone was dissolved in methanol, and the final concentration of methanol was 0.5% (v/v). Reactions were initiated by adding UDPGA, and incubations were carried out at 37°C in a shaking waterbath for 60 min. The reactions were terminated by addition of 200 μL of ice-cold acetonitrile containing 7-hydroxycoumarin (100 μM) as the internal standard. The incubation mixture was then centrifuged at 20,000 ×g for 20 min to obtain the supernatant, and an aliquot of supernatant (20 μL) was transferred to an autoinjector vial for HPLC analysis.

UGT1A1 = target: T2, UGT1A1 (Homo sapiens, UniProt P22309); test: Inhibition of recombinant UGT1A1-catalyzed 4-MU glucuronidation
T2 construct: purchased BD Gentest Corp. (Woburn, MA, USA)
T2 sequence (P22309 26-533): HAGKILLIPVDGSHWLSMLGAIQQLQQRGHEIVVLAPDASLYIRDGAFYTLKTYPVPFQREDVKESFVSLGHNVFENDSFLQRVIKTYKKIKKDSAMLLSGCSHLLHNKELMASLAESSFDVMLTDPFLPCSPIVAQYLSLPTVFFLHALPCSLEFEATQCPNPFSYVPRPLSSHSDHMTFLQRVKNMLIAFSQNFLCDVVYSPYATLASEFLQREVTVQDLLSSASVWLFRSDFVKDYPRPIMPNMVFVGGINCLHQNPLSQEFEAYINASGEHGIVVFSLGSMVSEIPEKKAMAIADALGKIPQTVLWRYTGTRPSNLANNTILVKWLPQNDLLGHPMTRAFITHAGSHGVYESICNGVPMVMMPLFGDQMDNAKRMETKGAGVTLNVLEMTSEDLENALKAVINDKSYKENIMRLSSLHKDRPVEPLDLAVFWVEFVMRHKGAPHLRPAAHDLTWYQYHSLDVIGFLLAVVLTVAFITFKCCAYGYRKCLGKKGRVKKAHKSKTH
Experimental: as §1

CYP2C9 = test: Inhibition of CYP2C9 activity (diclofenac probe) in RLMs; conditions: rat, rat liver microsomes, probe diclofenac 10 μM, 100 μM kurarinone, 10 μM diclofenac
Experimental: (§2) Samples were prepared in a total volume of 200 μL, containing 0.3 mg/mL protein in human liver microsomes or 15 nM protein in recombinant human supersomes, probe substrates or 50 μM kurarinone, 10 mM MgCl2, 10 mM glucose-6-phosphate, and 1 unit/mL of glucose-6-phosphate dehydrogenase. The reactions were activated by adding NADPH following preincubation at 37°C for 5 min. The reactions were maintained at 37°C for 1 h and terminated by adding 200 μL ice-cold acetonitrile. The supernatant (10 μL) collected from the samples that were centrifuged (20,000 g, 20 min, 4°C) was injected into the HPLC system for analysis. Control incubations devoid of NADPH or kurarinone were performed parallelly to ensure that the produced metabolites were NADPH- or kurarinone-dependent.
RLMs were used to assess the inhibitory effects of kurarinone (100 μM) on six different human isoforms (CYP1A2, CYP2C9, CYP2D6, CYP2E1, CYP3A4, and CYP2C19). The probe substrates used in this experiment were 40 μM phenacetin for CYP1A2, 10 μM diclofenac for CYP2C9, 25 μM dextromethorphan for CYP2D6, 120 μM chlorzoxazone for CYP2E1, 35 μM testosterone for CYP3A4, and 20 μM (S)-mephenytoin for […] as described earlier. The reaction system has been described in Section 2.3. […]

[1] = system: minipig liver microsomes (PLMs); test: Enzyme kinetics of P1 formation from kurarinone in PLMs
Experimental: as §2
Various concentrations of kurarinone (1–200 μM) were incubated with RLMs, MLMs, PLMs, RAMs, CYP1A2, and CYP2D6 to estimate kinetic parameters. The rest of the other conditions remained the same as described in Section 2.3. […] The apparent Km and Vmax values were calculated from nonlinear regression analysis of experimental data according to the Michaelis–Menten equation, and the results were represented graphically by Eadie–Hofstee plots. All incubations were carried out as triplicate independent experiments, and kinetic constants were recorded as mean ± SD.

`C=C(C)[C@H](CC=C(C)C)Cc1c(O)cc(OC)c2c1O[C@H](c1ccc(O)cc1O)CC2=O` [Kurarinone] was tested, and the inhibition at 60 min, 100 μM (UGT1A6) was > 90%, the “inhibition type against UGT1A1” value (UGT1A1; Dixon and Lineweaver–Burk plots) was “noncompetitive” and the inhibition at 60 min, 100 μM (UGT1A1; human, recombinant UGT1A1, pH 7.4, probe 4-MU (110 μM), 100 μM kurarinone, 4-MU glucuronidation, recombinant UGT) was > 90%. The IC50 (UGT1A1; recombinant UGT1A1, 4-MU glucuronidation, read-out: IC50 against UGT1A1) was 13.6 µM, the Ki (UGT1A1; second plot of slopes from Lineweaver–Burk plots) was 13 µM and the inhibition at 1 h, 100 μM (CYP2C9) was > 90%. The “Vmax of P1 formation” value [1] was 8.46 ± 0.74 nmol·min^−1·mg^−1 protein and the Km ([1]; kurarinone 1–200 μM) was 49.9 ± 7.91 µM.

Source: article PMC7509555, “An In Vitro Study for Evaluating Permeability and Metabolism of Kurarinone” (Evidence-based Complementary and Alternative Medicine : eCAM, 2020)
